According to patent publication US10138255B2, “Piperazine derivatives as HIV protease inhibitors” (Merck Sharp & Dohme Corp., priority 2014, dated 2018):
pEC50: −log10 of the molar value.

Test system: HIV-1 (H9IIIB strain)
Assay: Cell-Based HIV Infection Assay Using a Reporter (MT4-GFP cells)
Details: Human immunodeficiency virus 1, inflection point (IP) of viral growth inhibition; MT4-GFP cells infected with HIV-1 H9IIIB; 50% normal human serum; mean of at least two independent experiments; read-out: Cell Based IP (50% NHS)
Method: Cell-Based HIV Infection Assay Using a Reporter (“Cell-Based”):
MT4-GFP cells contain a stably integrated HIV long terminal repeat promoter directing the transcription of green fluorescent protein (GFP). When HIV infects the cell, GFP is produced and the cell becomes green. MT4-GFP cells (250,000 cells/mL) were bulk-infected with HIV-1 (H9IIIB strain) at low multiplicity of infection (MOI) in RPM 1640 media, supplemented with 10% FBS for 24 h. Cells were then washed once in RPMI 1640 plus 10% FBS and resuspended in RPMI plus 50% normal human serum (NHS). Test compounds were serial-diluted in DMSO using an ECHO liquid dispenser. A control well included a combination of three HIV drugs (an inhibitor of HIV protease, integrase strand transfer and a non-nucleoside reverse transcriptase inhibitor; triple drug). The infected MT4-GFP cells were added to a 384-well poly-D-lysine coated black plate with clear bottom in which the diluted test compounds were placed. The cells were seeded in the plate at 8,000 cells per well and the final DMSO concentration was 0.4%. Infected cells were quantified at both 24 and 48 h post incubation using an Acumen eX3 plate reader. Viral reproductive ratio (R0) was determined using the number of infected cells at 48 h divided by the number of infected cells at 24 h. Percent viral growth inhibition was calculated by [1−(R−Rtripledrug)/(RDMSO−Rtripledrug)]*100. Compound potency inflection point (IP) was determined with use of a 4-parameter dose response curve analysis.
Data shown in the table reflects the mean of at least two independent experiments.

| Structure (SMILES) | pEC50 |
| --- | --- |
| COC(=O)N[C@H](C(=O)N[C@H]1CCC[C@@H]1CC[C@H]1CN[C@@H]2CCCS(=O)(=O)N1C2)[C@@H](c1ccccc1)c1ccc(OC)nc1 [Example 82, methyl {(1S)-2-{[(1S,2R)-2-{2-[(6R,9S)-2,2-dioxido-2-thia-1,7-diazabicyclo[4.3.1]dec-9-yl]ethyl}cyclopentyl]amino}-1-[(S)-(6-methoxypyridin-3-yl)(phenyl)methyl]-2-oxoethyl}carbamate] | 6.80 |
| N[C@H](C(=O)Nc1cccc(F)c1CCC1CNC2CCCS(=O)(=O)N1C2)[C@@H](c1ccc(F)cc1)c1ccc(C(F)(F)F)cc1 (stereo partly drawn) [Example 33, (βR)—N-{2-[2-(2,2-Dioxido-2-thia-1,7-diazabicyclo[4.3.1]dec-9-yl)ethyl]-3-fluorophenyl}-β-(4-fluorophenyl)-4-(trifluoromethyl)-L-phenylalaninamide] | 8.07 |
| C[C@@H]1C[C@](c2ccc(Cl)cc2)([C@H](N)C(=O)Nc2cccc(F)c2CC[C@H]2CN[C@@H]3CCCS(=O)(=O)N2C3)C[C@H](C)O1 [Example 168, (2S)-2-amino-2-[(2R,4r,6S)-4-(4-chlorophenyl)-2,6-dimethyltetrahydro-2H-pyran-4-yl]-N-(2-{2-[(6R,9S)-2,2-dioxido-2-thia-1,7-diazabicyclo[4.3.1]dec-9-yl]ethyl}-3-fluorophenyl)ethanamide] | 6.77 |
| N[C@H](C(=O)N[C@H]1CCC[C@@H]1CC[C@H]1CN[C@@H]2CCCS(=O)(=O)N1C2)[C@H](c1cncc(F)c1)c1ccc(Cl)c(F)c1 [Example 81, (βS)-4-chloro-N-[(1S,2R)-2-{2-[(6R,9S)-2,2-dioxido-2-thia-1,7-diazabicyclo[4.3.1]dec-9-yl]ethyl}cyclopentyl]-3-fluoro-β-(5-fluoropyridin-3-yl)-L-phenylalaninamide] | 7.17 |
| CC1(C)CC([C@H](c2ccc(F)cc2)[C@H](N)C(=O)Nc2ccc(F)c(F)c2CC[C@H]2CN[C@@H]3CCCS(=O)(=O)N2C3)CCO1 (stereo partly drawn) [Example 179, (βR)-β-(2,2-dimethyltetrahydro-2H-pyran-4-yl)-N-(2-{2-[(6R,9S)-2,2-dioxido-2-thia-1,7-diazabicyclo[4.3.1]dec-9-yl]ethyl}-3,4-difluorophenyl)-4-fluoro-L-phenylalaninamide] | 7.51 |
| COC(=O)N[C@H](C(=O)N[C@H]1CCCC[C@@H]1CC[C@H]1CN[C@@H]2CCCS(=O)(=O)N1C2)[C@H](c1cncc(F)c1)c1ccc(Cl)c(F)c1 [Example 99, methyl [(1S,2S)-2-(4-chloro-3-fluorophenyl)-1-{[(1S,2R)-2-{2-[(6R,9S)-2,2-dioxido-2-thia-1,7-diazabicyclo[4.3.1]dec-9-yl]ethyl}cyclohexyl]carbamoyl}-2-(5-fluoropyridin-3-yl)ethyl]carbamate] | 7.26 |
| COC(=O)N[C@H](C(=O)Nc1cc(F)ccc1CC[C@H]1CN[C@@H]2CCCS(=O)(=O)N1C2)[C@@H](c1ccc(F)cc1)C1C[C@@H](C)O[C@@H](C)C1 (stereo partly drawn) [Example 30, Methyl [(1S,2R)-2-[(2R,6S)-2,6-dimethyltetrahydro-2H-pyran-4-yl]-1-[(2-{2-[(6R,9S)-2,2-dioxido-2-thia-1,7-diazabicyclo[4.3.1]dec-9-yl]ethyl}-5-fluorophenyl)carbamoyl]-2-(4-fluorophenyl)ethyl]carbamate] | 8.00 |
| N[C@H](C(=O)Nc1cccc(F)c1CC[C@H]1CNC[C@@H]2CCCS(=O)(=O)N1C2)[C@@H](c1ccc(Cl)cc1)C1CCOCC1 [Example 274, (2S,3R)-2-Amino-3-(4-chlorophenyl)-N-(2-(2-((6S,10S)-2,2-dioxido-2-thia-1,8-diazabicyclo[4.4.1]undecan-10-yl)ethyl)-3-fluorophenyl)-3-(tetrahydro-2H-pyran-4-yl)propanamide] | 6.17 |
| NC(C(=O)Nc1cccc(F)c1CC[C@H]1CN[C@@H]2CCCS(=O)(=O)N1C2)[C@@H](c1ccc(Cl)cc1)[C@H]1CC[C@H](O)CC1 (stereo partly drawn) [Example 217, (βR)-4-chloro-N-(2-{2-[(6R,9S)-2,2-dioxido-2-thia-1,7-diazabicyclo[4.3.1]dec-9-yl]ethyl}-3-fluorophenyl)-β-[(1r,4R)-4-hydroxycyclohexyl]-L-phenylalaninamide] | 7.89 |
| N[C@H](C(=O)Nc1cc(F)cc(F)c1CC[C@H]1CN[C@@H]2CCCS(=O)(=O)N1C2)[C@@H](c1ccc(Cl)cc1)C1CCOCC1 [Example 143, (βR)-4-chloro-N-(2-{2-[(6R,9S)-2,2-dioxido-2-thia-1,7-diazabicyclo[4.3.1]dec-9-yl]ethyl}-3,5-difluorophenyl)-β-(tetrahydro-2H-pyran-4-yl)-L-phenylalaninamide] | 7.11 |
| C[C@@H]1C[C@H](C(c2ccc(F)cc2)[C@H](N)C(=O)Nc2cccc(F)c2CC[C@H]2CN[C@@H]3CCCS(=O)(=O)N2C3)C[C@H](C)O1 (stereo partly drawn) [Example 15, β-[(2R,4r,6S)-2,6-Dimethyltetrahydro-2H-pyran-4-yl]-N-(2-{2-[(6R,9S)-2,2-dioxido-2-thia-1,7-diazabicyclo[4.3.1]dec-9-yl]ethyl}-3-fluorophenyl)-4-fluoro-L-phenylalaninamide] | 8.06 |
| COC(=O)N[C@H](C(=O)Nc1cccc(F)c1CC[C@H]1CN[C@@H]2CCCS(=O)(=O)N1C2)[C@@H](c1ccc(Cl)cc1)C1CCC(C)(C)OC1 (stereo partly drawn) [Example 271, methyl {(1S,2R)-2-(4-chlorophenyl)-2-(6,6-dimethyltetrahydro-2H-pyran-3-yl)-1-[(2-{2-[(6R,9S)-2,2-dioxido-2-thia-1,7-diazabicyclo[4.3.1]dec-9-yl]ethyl}-3-fluorophenyl)carbamoyl]ethyl}carbamate] | 8.15 |
| COC(=O)N[C@H](C(=O)Nc1cccc(F)c1CCC1CNC2CCCS(=O)(=O)N1C2)[C@H](c1cncc(Cl)c1)c1ccc(Cl)c(F)c1 (stereo partly drawn) [Example 73, methyl [(1S,2S)-2-(4-chloro-3-fluorophenyl)-2-(5-chloropyridin-3-yl)-1-({2-[2-(2,2-dioxido-2-thia-1,7-diazabicyclo[4.3.1]dec-9-yl)ethyl]-3-fluorophenyl}carbamoyl)ethyl]carbamate] | 7.74 |
| COC(=O)N1CCC(c2ccc(Cl)cc2)([C@H](N)C(=O)Nc2cccc(F)c2CC[C@H]2CN[C@@H]3CCCS(=O)(=O)N2C3)CC1 [Example 14, Methyl 4-{(1S)-1-amino-2-[(2-{2-[(6R,9S)-2,2-dioxido-2-thia-1,7-diazabicyclo[4.3.1]dec-9-yl]ethyl}-3-fluorophenyl)amino]-2-oxoethyl}-4-(4-chlorophenyl)piperidine-1-carboxylate] | 7.85 |
| N[C@H](C(=O)Nc1cncc(F)c1CC[C@H]1CN[C@@H]2CCCS(=O)(=O)N1C2)[C@@H](c1ccc(F)cc1)C1CCOCC1 [Example 195, (βR)-N-(4-{2-[(6R,9S)-2,2-dioxido-2-thia-1,7-diazabicyclo[4.3.1]dec-9-yl]ethyl}-5-fluoropyridin-3-yl)-4-fluoro-β-(tetrahydro-2H-pyran-4-yl)-L-phenylalaninamide] | 7.17 |
| COC(=O)N[C@H](C(=O)Nc1cccc(F)c1CC[C@H]1CN[C@@H]2CCCS(=O)(=O)N1C2)[C@@H](c1ccc(F)cc1)c1cnc(C(F)(F)F)nc1 [Example 22, Methyl [(1S)-2-[(2-{2-[(6R,9S)-2,2-dioxido-2-thia-1,7-diazabicyclo[4.3.1]dec-9-yl]ethyl}-3-fluorophenyl)amino]-1-{(S)-(4-fluorophenyl)[2-(trifluoromethyl)pyrimidin-5-yl]methyl}-2-oxoethyl]carbamate] | 7.82 |
| CC1(C)C[C@@H]([C@H](c2ccc(F)cc2)[C@H](N)C(=O)N[C@H]2CCCC[C@@H]2CC[C@H]2CN[C@@H]3CCCS(=O)(=O)N2C3)CCO1 [Example 148, (βR)-β-[(4S)-2,2-dimethyhetrahydro-2H-pyran-4-yl]-N-[(1S,2R)-2-{2-[(6R,9S)-2,2-dioxido-2-thia-1,7-diazabicyclo[4.3.1]dec-9-yl]ethyl}cyclohexyl]-4-fluoro-L-phenylalaninamide] | 6.80 |
| N[C@H](C(=O)Nc1cccc(F)c1CCC1CNC2CCCS(=O)(=O)N1C2)[C@@H](c1ccc(F)cc1)c1ccc2c(c1)CCC2 (stereo partly drawn) [Example 225, (2S,3S)-2-Amino-3-(2,3-dihydro-1H-inden-5-yl)-N-{2-[2-(2,2-dioxido-2-thia-1,7-diazabicyclo[4.3.1]dec-9-yl)ethyl]-3-fluorophenyl}-3-(4-fluorophenyl)propanamide] | 7.35 |
| CO[C@H]1C[C@@H]([C@H](c2ccc(F)cc2)[C@H](N)C(=O)Nc2cccc(F)c2CC[C@H]2CN[C@@H]3CCCS(=O)(=O)N2C3)C1 [Example 106, (βR)-N-(2-{2-[(6R,9S)-2,2-dioxido-2-thia-1,7-diazabicyclo[4.3.1]dec-9-yl]ethyl}-3-fluorophenyl)-4-fluoro-β-[(1s,3S)-3-methoxycyclobutyl]-L-phenylalaninamide] | 6.96 |
| N[C@H](C(=O)Nc1cccc(F)c1CCC1CNC2CCCS(=O)(=O)N1C2)[C@H](CCC1CCOCC1)c1ccc(Cl)c(F)c1 (stereo partly drawn) [Example 74, (βR)-4-chloro-N-{2-[2-(2,2-dioxido-2-thia-1,7-diazabicyclo[4.3.1]dec-9-yl)ethyl]-3-fluorophenyl}-3-fluoro-β-[2-(tetrahydro-2H-pyran-4-yl)ethyl]-L-phenylalaninamide] | 6.82 |
